Legend:
[1] = fervescence activity by intravenous injection (rising of body temperature), 1 mg/kg; assay type: in vivo, Wister male rats; conditions: 1 mg/kg intravenous, urethane-anesthetized rats
Procedure: fervescence activity by intravenous injection Test animals were Wister male rats (8 weeks old) weighing 200±10 g. The rats were applied to anesthesia by intraperitoneal injection of 1.25 g/kg of urethane. Each test drug was dissolved into ethyl alcohol. The ethyl alcohol solution was diluted with Ringer's solution at least 50 times just before use and 1 mg/kg of the each test drug was intravenously administered. Body temperature was measured in the same manner as in Example 1. Ringer's solution containing ethyl alcohol was administered as control. Rising of body temperature is shown by the rising degree (°C.) from the temperature before administration.

acute toxicity (LD50) = conditions: mouse, in vivo; mice, intravenous injection
Text: Acute toxicity (LD50) of the test drugs was estimated on Slc-ddY female mice (5-weeks old) by an intravenous injection.

[2] = fervescence activity by intracerebroventricular injection (rising of body temperature); assay type: in vivo, Wister male rats; conditions: 400 ng in 3 μl into lateral ventricle, urethane-anesthetized rats, rectal temperature
Procedure: fervescence activity by intracerebroventricular injection
Wister male rats (8 weeks old) were used as test animals.
Rats were applied to anesthesia by intraperitoneal injection with 1.25 g/kg of urethane and a stainless guide cannula was inserted into the lateral ventricle for administration of a test drug according to Pellegrino's Rat brain atras.
Each test drug was dissolved into an artificial cerebrospinal fluid and 400 ng as drug in 3 μl was injected through the injection cannula for 15 seconds. The artificial cerebrospinal fluid alone was injected as control. Body temperature was measured continuously at the rectum. Rising of body temperature is shown by the rising degree (°C.) from the temperature before administration.

[3] = in vivo; cited from earlier work
[4] = fervescence activity by intravenous injection (rising of body temperature), 5 mg/kg; assay type: in vivo, Wister male rats; conditions: 5 mg/kg intravenous, urethane-anesthetized rats
Procedure: Test animals were Wister male rats (8 weeks old) weighing 200±10 g. The rats were applied to anesthesia by intraperitoneal injection of 1.25 g/kg of urethane. Each test drug was dissolved into ethyl alcohol. The ethyl alcohol solution was diluted with Ringer's solution at least 50 times just before use and 1 mg/kg of the each test drug was intravenously administered. Body temperature was measured in the same manner as in Example 1.
Ringer's solution containing ethyl alcohol was administered as control. Rising of body temperature is shown by the rising degree (°C.) from the temperature before administration.
Experiment was carried out in the same manner as in Example 2 except for that test drugs were administered intravenously with a dose of 5 mg/kg.

[5] = sedation activity and rising of body temperature in dog; assay type: in vivo, hybrid adult dog; conditions: intravenous
Text: Sedation Activity A 19-methyl type compound having strong fervescence activity was compared with PGE2 […] sedation activity. A hybrid adult dog was held on a holder for dog and intravenously administered with a test drug dissolved in Ringer's solutions at the forefoot. Sedation activity was judged as follows: Sedation Degree 1: Disappearance of body movement 2: Closing of the eyes 3: Leaning on the holding belt

[6] = fervescence (recovery of body temperature) activity at hemorrhage load; assay type: in vivo, Wister male rats; conditions: rat loaded with hemorrhage
Procedure: fervescence (recovery of body temperature) activity at hemorrhage load
Wister male rats (weight: 200 g) were subcutaneously injected on the back with 1.5 g/kg of urethane, subjected to anesthesia. Hemorrhage was then induced by withdrawal of blood by puncture of the heart for the total volume of 3 ml equivalent to 1.5% of the body weight. After kept in a room for 60 minutes, the rats were administered intravenously with test solutions prepared by dissolving test drugs into Ringer's solution so as to administer the rat at a dose of 0.5 or 1 mg/kg, and change of the body temperature was observed. Ringer's solution was administered as control.
In the figures, (1), (2) and (3) correspond to the results of administration of doses 1 mg/kg, 0.5 mg/kg and Ringer's solution alone, respectively.

Structure (SMILES)	Rising of Body Temperature [1]	Rising of Body Temperature [2]	other results
CCCCCC(=O)CC[C@H]1[C@H](O)CC(=O)[C@@H]1CCCCCCC(=O)OCC [compound 2]	+0.9 °C	+0.4 °C	LD50 (acute toxicity (LD50)): > 1000 mg/kg
CCCCC[C@H](O)/C=C/[C@H]1[C@H](O)CC(=O)[C@@H]1C/C=C\CCCC(=O)O [Test drug 58, PGE2]			blood pressure (known) [3]: strongly decreases the blood pressure; fervescence activity (known) [3]: known to have fervescence activity
CCCCCC(=O)CC[C@H]1[C@H](O)CC(=O)[C@@H]1C/C=C\CCCC(=O)OCCC [compound 25]	+0.2 °C		Rising of Body Temperature [4]: +1.3 °C
COC(=O)CCCCC(=O)C[C@H]1C(=O)C[C@@H](O)[C@@H]1CCC(=O)CCCC(C)C [compound 15]	+0.7 °C		Rising of Body Temperature ([5]; 0.5 mg/kg): 1.2 °C
CCCCCCC(=O)CC[C@H]1[C@H](O)CC(=O)[C@@H]1CC(=O)CCCCC(=O)OCC [compound 18]	+0.7 °C		Rising of Body Temperature ([6]; 0.5 mg/kg intravenous): +0.4 °C; Rising of Body Temperature ([6]; 1 mg/kg intravenous): +0.8 °C
CCCCCC(=O)CC[C@H]1[C@H](O)CC(=O)[C@@H]1C/C=C\CCCC(=O)O [compound 22]	0 °C	+0.7 °C	
CCCCCC(=O)CC[C@H]1[C@H](C)CC(=O)[C@@H]1CC(=O)CCCCC(=O)OCC [compound 20]	+1.3 °C		Rising of Body Temperature ([6]; 0.5 mg/kg intravenous): +0.5 °C; Rising of Body Temperature ([6]; 1 mg/kg intravenous): +0.8 °C
CCCCC[C@H](O)/C=C/[C@H]1[C@H](O)CC(=O)[C@@H]1C/C=C\CCCC(=O)OC [compound 59]	+1.2 °C		Rising of Body Temperature ([5]; 0.01 mg/kg): 0.4 °C
CCCCCC(=O)CC[C@H]1[C@H](O)CC(=O)[C@@H]1CC(=O)CCCCC(=O)OCC [compound 8]	+0.6 °C	+0.4 °C	Rising of Body Temperature ([6]; 0.5 mg/kg intravenous): +0.7 °C; Rising of Body Temperature ([6]; 1 mg/kg intravenous): +0.8 °C
CCOC(=O)CCCCC(=O)C[C@H]1C(=O)C[C@@H](O)[C@@H]1/C=C/C(=O)CCCC(C)C [compound 62]			Rising of Body Temperature [4]: +0.63 °C
COC(=O)CCC/C=C\C[C@H]1C(=O)C[C@@H](O)[C@@H]1CCC(=O)CCCC(C)C [compound 45]	+2.0 °C		Rising of Body Temperature ([5]; 0.5 mg/kg): 0.5 °C
CCCCCC(=O)CC[C@H]1[C@H](O)CC(=O)[C@@H]1CC(=O)CCCCC(=O)O [compound 6]	0 °C	+0.8 °C	
CCCCCC(=O)CC[C@H]1[C@H](O)CC(=O)[C@@H]1CCCCCCC(=O)O [compound 1]	0 °C	+0.4 °C	
CCCCC[C@H](O)/C=C/[C@H]1[C@H](O)CC(=O)[C@@H]1C/C=C\CCCC(=O)OC [Test drug 59, PGE2 methyl ester, reference compound]			sedation activity (in words) [5]: clear sedation activity
CCCCCC(=O)CC[C@H]1[C@H](O)CC(=O)[C@@H]1C/C=C\CCCC(=O)OCCCC [compound 26]	+0.2 °C	+0.1 °C	Rising of Body Temperature [4]: +0.9 °C
CCCCCC(=O)CC[C@H]1[C@H](O)CC(=O)[C@@H]1C/C=C\CCCC(=O)OCC [compound 24]	+0.5 °C	+0.5 °C	LD50 (acute toxicity (LD50)): 1000 mg/kg; Rising of Body Temperature ([6]; 0.5 mg/kg intravenous): +0.8 °C; Rising of Body Temperature ([6]; 1 mg/kg intravenous): +1.1 °C
CCCCCC(=O)CC[C@H]1[C@H](O)CC(=O)[C@@H]1C/C=C\CCCC(=O)OC [compound 23]	+1.0 °C	+0.4 °C	LD50 (acute toxicity (LD50)): > 1000 mg/kg
CCOC(=O)CCCCC(=O)C[C@H]1C(=O)C[C@@H](O)[C@@H]1CCC(=O)CCCC(C)C [compound 16]	+0.8 °C		Rising of Body Temperature ([5]; 0.5 mg/kg): 1.1 °C; LD50 (acute toxicity (LD50)): > 300 mg/kg; Rising of Body Temperature ([6]; 0.5 mg/kg intravenous): +0.4 °C; Rising of Body Temperature ([6]; 1 mg/kg intravenous): +0.6 °C
CCCCCC(=O)CC[C@H]1[C@H](O)CC(=O)[C@@H]1CC(=O)CCCCC(=O)OC [compound 7]	+0.8 °C	+0.6 °C	

Reference: patent publication US5001154A, “Fervescence composition” (K.K. Ueno Seiyaku Oyo Kenkyujo, priority 1987, dated 1991)
